From patent US8802664B2 (Bioproject, priority 2010, dated 2014)
Where two headings read alike, the source gives them in different places.

Molecular target: T1, human H4 receptor (Homo sapiens, UniProt Q9H3N8)
T1 construct: expressed in transfected cells
Test: [3H]Histamine binding on membranes of CHO cells stably expressing human H4 receptor
Summary of the method: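 Filter-bound counts (liquid scintillation) gave H4 binding. Incubation used 20 μg membrane protein/well in Tris/HCl 50 mM plus EDTA 0.5 mM at pH 7.4, and 10 μM JNJ 7777120 set nonspecific binding. Filtration on GF/B pretreated with polyethyleneimine stopped the reaction.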

[1] = human H4 receptor, evaluated in the GTPγ[35S] assay or in the [3H]histamine binding assay (not stated which per compound), Ki or IC50 class

T1 sequence (Q9H3N8 whole entry): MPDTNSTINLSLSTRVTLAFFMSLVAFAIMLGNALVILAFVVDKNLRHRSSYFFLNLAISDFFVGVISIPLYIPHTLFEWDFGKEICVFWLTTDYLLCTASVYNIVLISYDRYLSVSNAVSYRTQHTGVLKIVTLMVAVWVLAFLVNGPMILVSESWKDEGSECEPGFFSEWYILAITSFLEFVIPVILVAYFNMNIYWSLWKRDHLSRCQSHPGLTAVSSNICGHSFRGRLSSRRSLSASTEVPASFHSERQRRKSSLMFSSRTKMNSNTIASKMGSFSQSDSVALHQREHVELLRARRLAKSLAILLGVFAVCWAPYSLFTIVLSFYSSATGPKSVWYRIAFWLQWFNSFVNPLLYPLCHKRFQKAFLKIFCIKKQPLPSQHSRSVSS

| Structure (SMILES) | Ki or IC50 activity class [nM] | further results |
| --- | --- | --- |
| CCCCOc1cccc(C(OC2CCN(C)CC2)c2nc3ccccc3s2)c1 (centres unmarked) [Example 92, 2-[(3-butoxyphenyl)(1-methylpiperidin-4-yloxy)methyl]benzothiazole] | < 300 | – |
| CNC(=O)CSc1cccc(C(OC2CCN(C)CC2)c2nc3ccccc3s2)c1 (centres unmarked) [Example 259, 2-{3-[benzothiazol-2-yl(1-methylpiperidin-4-yloxy)methyl]phenylsulfanyl}-N-methylacetamide] | < 300 | – |
| CN1CCC(OC(c2cccc(SCCCCCCO)c2)c2nc3ccccc3s2)CC1 (centres unmarked) [Example 292, 6-{3-[benzothiazol-2-yl(1-methylpiperidin-4-yloxy)methyl]phenylsulfanyl}hexan-1-ol] | < 300 | – |
| CN1CCC(OC(c2ccc3c(c2)OCO3)c2nc3ccccc3s2)CC1 (centres unmarked) [Example 20, 2-[benzo[1,3]dioxol-5-yl(1-methylpiperidin-4-yloxy)methyl]benzothiazole] | < 300 | – |
| CN1CCC(OC(c2cccc(SCC3NC(N)=NC3=O)c2)c2nc3ccccc3[nH]2)CC1 (centres unmarked) [Example 479, 2-amino-5-{3-[(1H-benzimidazol-2-yl)(1-methylpiperidin-4-yloxy)methyl]phenylsulfanylmethyl}-1,5-dihydroimidazol-4-one] | < 30 | – |
| CCCOc1cccc(C(OC2CCN(C)CC2)c2nc3ccccc3s2)c1 (centres unmarked) [Example 26, 2-[(1-methylpiperidin-4-yloxy)(3-propoxy-phenyl)methyl]benzothiazole] | < 30 | – |
| CN1CCC(OC(c2cccc(N3CCOCC3)c2)c2nc3ccccc3s2)CC1 (centres unmarked) [Example 243, 2-[(1-methylpiperidin-4-yloxy)(3-morpholin-4-yl-phenyl)methyl]benzothiazole] | < 300 | – |
| CN1CCC(OC(c2nc3cc(F)ccc3[nH]2)c2cc(OC(F)(F)F)ccc2F)CC1 (centres unmarked) [Example 509] | < 30 | – |
| CN1CCC(OC(c2cccc(C#CCCCCN)c2)c2nc3cc(F)ccc3[nH]2)CC1 (centres unmarked) [Example 439, 6-{3-[(5-fluoro-1H-benzimidazol-2-yl)(1-methylpiperidin-4-yloxy)methyl]phenyl}hex-5-ynylamine] | < 30 | – |
| COc1ccc(-c2cccc(C(NC3CCN(C)CC3)c3nc4ccccc4s3)c2)cc1 (centres unmarked) [Example 211, [benzothiazol-2-yl(4′-methoxybiphenyl-3-yl)methyl](1-methylpiperidin-4-yl)amine] | < 300 | – |
| CN1CCC(OC(c2nc3ccccc3s2)c2cc(OC(F)(F)F)ccc2F)CC1 (centres unmarked) [Example 526] | < 30 | – |
| CC(=O)c1cccc(-c2cccc(C(OC3CCN(C)CC3)c3nc4ccccc4[nH]3)c2)c1 (centres unmarked) [Example 110, 1-{3′-[(1H-benzimidazol-2-yl)(1-methylpiperidin-4-yloxy)methyl]biphenyl-3-yl}ethanone] | < 300 | – |
| CN1CCC(OC(c2cccc(N3CCC(N)CC3)c2)c2nc3ccccc3s2)CC1 (centres unmarked) [Example 405, 1-{3-[benzothiazol-2-yl(1-methylpiperidin-4-yloxy)methyl]phenyl}piperidin-4-ylamine] | < 300 | – |
| CN1CCC(NC(c2cccc(OCc3ccc(F)cc3)c2)c2nc3ccccc3[nH]2)CC1 (centres unmarked) [Example 103, {(1H-benzimidazol-2-yl)[3-(4-fluorobenzyloxy)phenyl]methyl}(1-methylpiperidin-4-yl)amine] | < 300 | – |
| CN1CCC(OC(c2cccc(OCC3CCCCC3)c2)c2nc3ccccc3s2)CC1 (centres unmarked) [Example 285, 2-[(3-Cyclohexylmethoxyphenyl)(1-methylpiperidin-4-yloxy)methyl]benzothiazole] | < 1000 | – |
| Cc1ccc(C(OC2CCN(C)CC2)c2nc3ccccc3s2)s1 (centres unmarked) [Example 19, 2-[(1-methylpiperidin-4-yloxy)(5-methylthiophen-2-yl)methyl]benzothiazole] | < 300 | – |
| CN1CCC(OC(c2cccc(SCCCCN)c2)c2nc3cc(F)c(F)c(F)c3[nH]2)CC1 (centres unmarked) [Example 493] | < 30 | – |
| CN1CCC(OC(c2cccc(C#CCCCO)c2)c2nc3ccccc3s2)CC1 (centres unmarked) [Example 237, 5-{3-[benzothiazol-2-yl(1-methylpiperidin-4-yloxy)methyl]phenyl}pent-4-yn-1-ol] | < 300 | – |
| CC(C)C(=O)N(CCSc1cccc(C(OC2CCN(C)CC2)c2nc3ccccc3[nH]2)c1)C(=N)N (centres unmarked) [Example 478] | – | Ki or IC50 activity class [1]: < 300 nM |
| CN1CCC(OC(c2cccc(OCCCN)c2)c2nc3ccccc3s2)CC1 (centres unmarked) [Example 311, 3-{3-[benzothiazol-2-yl(1-methylpiperidin-4-yloxy)methyl]phenoxy}propylamine] | < 300 | – |
| CN1CCC(OC(c2cccc(OCCCl)c2)c2nc3ccccc3s2)CC1 (centres unmarked) [Example 354, 2-[[3-(2-Chloroethoxy)phenyl](1-methylpiperidin-4-yloxy)methyl]benzothiazole] | < 30 | – |
| CN1CCC(OC(c2nc3ccccc3[nH]2)c2cc(C#CCCCN)ccc2F)CC1 (centres unmarked) [Example 442] | < 30 | – |

| Structure (SMILES) | Ki or IC50 activity class [nM] | further results |
| --- | --- | --- |
| CN1CCC(OC(c2cccc(Br)c2)c2nc3cc(F)ccc3[nH]2)CC1 (single isomer, unassigned) [Example 568, 2-[(3-bromophenyl)(1-methylpiperidin-4-yloxy)methyl]-5-fluoro-1H-benzimidazole] | < 30 | – |
| Cc1ccccc1COc1cccc(C(NC2CCN(C)CC2)c2nc3ccccc3[nH]2)c1 (centres unmarked) [Example 129, {(1H-benzimidazol-2-yl)[3-(2-methylbenzyloxy)phenyl]methyl}(1-methylpiperidin-4-yl)amine] | < 30 | – |
| CN1CCC(OC(c2cccc(CO)c2)c2nc3ccccc3s2)CC1 (centres unmarked) [Example 207, {3-[benzothiazol-2-yl(1-methylpiperidin-4-yloxy)methyl]phenyl}methanol] | < 1000 | – |
| COc1ccc(-c2cccc(C(OC3CCN(C)CC3)c3nc4ccccc4s3)c2)cc1 (centres unmarked) [Example 100, 2-[(4′-methoxybiphenyl-3-yl)(1-methylpiperidin-4-yloxy)methyl]benzothiazole] | < 300 | – |
| C#Cc1cccc(C(OC2CCN(C)CC2)c2nc3ccccc3[nH]2)c1 (centres unmarked) [Example 195, 2-[(3-ethynylphenyl)(1-methylpiperidin-4-yloxy)methyl]-1H-benzimidazole] | < 300 | – |
| C=CCCCOc1cccc(C(NC2CCN(C)CC2)c2nc3ccccc3[nH]2)c1 (centres unmarked) [Example 135, [(1H-benzimidazol-2-yl)(3-pent-4-enyloxyphenyl)methyl](1-methylpiperidin-4-yl)amine] | < 300 | – |
| CN1CCC(OC(c2cccc(N3CCC(N)C3)c2)c2nc3ccccc3s2)CC1 (centres unmarked) [Example 429, 1-{3-[benzothiazol-2-yl(1-methylpiperidin-4-yloxy)methyl]phenyl}pyrrolidin-3-ylamine] | – | Ki or IC50 activity class [1]: < 300 nM |
| CN1CCC(OC(c2cccc(N3CCCC3CO)c2)c2nc3ccccc3s2)CC1 (centres unmarked) [Example 323, (1-{3-[benzothiazol-2-yl(1-methylpiperidin-4-yloxy)methyl]phenyl}pyrrolidin-2-yl)methanol] | < 1000 | – |
| CN1CCC(OC(c2ccc(Cl)cc2)c2nc3ccccc3[nH]2)CC1 (centres unmarked) [Example 226, 2-[(4-chlorophenyl)(1-methylpiperidin-4-yloxy)methyl]-1H-benzimidazole] | < 300 | – |
| CN1CCC(NC(c2cccc(Oc3ccccc3)c2)c2nc3ccccc3[nH]2)CC1 (centres unmarked) [Example 85, [(1H-benzimidazol-2-yl)(3-phenoxyphenyl)methyl](1-methylpiperidin-4-yl)amine] | < 300 | – |
| CN1CCC(OC(c2ccc3ccccc3c2)c2nc3ccccc3s2)CC1 (centres unmarked) [Example 18, 2-[(1-methylpiperidin-4-yloxy)naphthalen-2-ylmethyl]benzothiazole] | < 300 | – |
| CN1CCC(OC(c2cccc(SCC(O)CO)c2)c2nc3ccccc3[nH]2)CC1 (centres unmarked) [Example 288, 3-{3-[(1H-benzimidazol-2-yl)(1-methylpiperidin-4-yloxy)methyl]phenylsulfanyl}propane-1,2-diol] | < 1000 | – |
| COC(=O)CSc1cccc(C(OC2CCN(C)CC2)c2nc3ccccc3s2)c1 (centres unmarked) [Example 160, {3-[benzothiazol-2-yl(1-methylpiperidin-4-yloxy)methyl]phenylsulfanyl}acetic acid methyl ester] | < 30 | – |
| CN1CCC(OC(c2ccc(F)cc2)c2nc3ccccc3s2)CC1 (centres unmarked) [Example 3, 2-[(4-fluorophenyl)(1-methylpiperidin-4-yloxy)methyl]benzothiazole] | < 300 | – |
| COc1cccc(COc2cccc(C(OC3CCN(C)CC3)c3nc4ccccc4s3)c2)c1 (centres unmarked) [Example 185, 2-[[3-(3-methoxybenzyloxy)phenyl](1-methylpiperidin-4-yloxy)methyl]benzothiazole] | < 30 | – |
| CN1CCC(OC(c2cccc(SCC3(CCO)CC3)c2)c2nc3ccccc3[nH]2)CC1 (centres unmarked) [Example 257] | – | Ki (read-out: Activity (Ki or IC50)): < 1000 nM |
| CN1CCC(OC(c2cccc(SCCc3cnccn3)c2)c2nc3ccccc3s2)CC1 (centres unmarked) [Example 233, 2-{(1-methylpiperidin-4-yloxy)[3-(2-pyrazin-2-yl-ethylsulfanyl)phenyl]methyl}benzothiazole] | < 300 | – |
| CN1CCC(OC(c2cccc(C#CCO)c2)c2nc3ccccc3s2)CC1 (centres unmarked) [Example 227, 3-{3-[benzothiazol-2-yl(1-methylpiperidin-4-yloxy)methyl]phenyl}prop-2-yn-1-ol] | < 30 | – |
| CN1CCC(OC(c2cccc(SCCc3cnccn3)c2)c2nc3ccccc3[nH]2)CC1 (centres unmarked) [Example 232, 2-{(1-methylpiperidin-4-yloxy)[3-(2-pyrazin-2-yl-ethylsulfanyl)phenyl]methyl}-1H-benzimidazole] | < 1000 | – |
| CN1CCC(OC(c2cccc(SCC=CCN)c2)c2nc3ccccc3[nH]2)CC1 (centres unmarked) [Example 473] | < 30 | – |
| CN1CCC(OC(c2nc3ccccc3[nH]2)c2cccs2)CC1 (centres unmarked) [Example 546] | < 300 | – |
| CN1CCC(OC(c2cccc(CCCCNC(=N)N)c2)c2nc3ccccc3s2)CC1 (centres unmarked) [Example 374, N-(4-{3-[benzothiazol-2-yl(1-methylpiperidin-4-yloxy)methyl]phenyl}butyl)guanidine] | < 30 | – |
